Test [1] concerns the target T1, chABCD1 (chimeric ABCD1) (Homo sapiens, UniProt P33897).
T1 construct: single polypeptide: N-terminal FLAG tag, PMP-4 residues 1-65 replacing human ABCD1 residues 1-63, then human ABCD1 64-745; HEK293F; homodimer; LMNG/CHS for assays, digitonin for cryo-EM; with PMP-4 (peroxisomal membrane protein related, ABCD1 homolog, Caenorhabditis elegans; N-terminal segment fused to the target chain)
T1 sequence (P33897 64-745): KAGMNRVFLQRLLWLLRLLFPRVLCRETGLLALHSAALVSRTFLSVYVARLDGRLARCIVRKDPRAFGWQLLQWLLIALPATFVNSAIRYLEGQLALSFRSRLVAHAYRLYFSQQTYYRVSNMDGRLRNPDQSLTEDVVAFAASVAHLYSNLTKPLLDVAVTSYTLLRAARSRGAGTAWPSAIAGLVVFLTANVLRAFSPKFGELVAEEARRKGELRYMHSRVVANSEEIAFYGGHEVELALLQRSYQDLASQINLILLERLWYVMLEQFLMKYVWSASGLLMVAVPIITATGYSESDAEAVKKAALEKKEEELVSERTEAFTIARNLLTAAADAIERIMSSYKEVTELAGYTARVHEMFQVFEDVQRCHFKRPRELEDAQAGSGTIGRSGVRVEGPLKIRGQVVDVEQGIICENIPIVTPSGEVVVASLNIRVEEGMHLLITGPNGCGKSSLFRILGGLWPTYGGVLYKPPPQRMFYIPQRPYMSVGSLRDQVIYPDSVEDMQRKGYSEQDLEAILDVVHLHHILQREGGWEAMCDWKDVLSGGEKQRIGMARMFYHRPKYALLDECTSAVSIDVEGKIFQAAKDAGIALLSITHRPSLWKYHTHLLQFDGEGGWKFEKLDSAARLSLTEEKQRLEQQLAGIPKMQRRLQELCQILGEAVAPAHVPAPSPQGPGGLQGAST
Put plainly: ATPase assay (colorimetric Pi release). Particulars: varying ATP, with or without C22:0-CoA, 2 mM MgCl2, LMNG + CHS, pH 7.5, 37 °C; Michaelis-Menten fit. The format is biochemical.

For test [2], the target named is T1, chABCD1 (chimeric ABCD1). Put plainly: substrate-stimulated ATPase assay (colorimetric Pi release). It is filed as biochemical.
Test [3] has as its target chimeric ABCD1, C-terminal helix truncated variant (ΔGlu694-Thr745) (Caenorhabditis elegans | human) (UniProt O45730).

`Nc1ncnc2c1ncn2[C@@H]1O[C@H](COP(=O)(O)OP(=O)(O)OP(=O)(O)O)[C@@H](O)[C@H]1O` [ATP]: the Km result on chABCD1 (chimeric ABCD1) [1] is “The data points were fitted with a Michaelis-Menten equation”.

For the molecule `CCCCCCCCCCCCCCCCCCCCCCCC(=O)SCCNC(=O)CCNC(=O)[C@H](O)C(C)(C)COP(=O)(O)OP(=O)(O)OC[C@H]1O[C@@H](n2cnc3c(N)ncnc32)[C@H](O)[C@@H]1OP(=O)(O)O` [C24:0-CoA], the EC50 (as a rule, the concentration needed to bring the measured effect to its halfway point) on chABCD1 (chimeric ABCD1) [2] was about 2000 nM.

On to `CCCCCCCCCCCCCCCCCCCCCCCCCC(=O)SCCNC(=O)CCNC(=O)[C@H](O)C(C)(C)COP(=O)(O)OP(=O)(O)OC[C@H]1O[C@@H](n2cnc3c(N)ncnc32)[C@H](O)[C@@H]1OP(=O)(O)O` [C26:0-CoA], for which the EC50 on chABCD1 (chimeric ABCD1) [2] was about 2000 nM.

For the molecule “chimeric ABCD1, C-terminal helix truncated variant (ΔGlu694-Thr745) (from UniProt O45730 1-65; P33897 64-693)”, the Vmax of C22:0-CoA-stimulated ATPase activity (LMNG + CHS, 2 mM ATP) (mol Pi/min/mol protein) in test [3] stood at 17.5.

Source of the values: PMC9177597, “Structural basis of substrate recognition and translocation by human very long-chain fatty acid transporter ABCD1” (Nature Communications, 2022).
